Data on 17 compounds can be found in ChEMBL document CHEMBL1150001, “A rationale for the design and synthesis of m1 selective muscarinic agonists” (Bioorg Med Chem Lett, 1992).

The target in assay [1] is Muscarinic acetylcholine receptor. The assay can be described thus: Compound was evaluated for inhibition of [3H]cis-methyldioxolane binding to label agonist sites (RCMD) in rat neocortex.
Assay [2] concerns the target T1, Muscarinic acetylcholine receptor M2 (Homo sapiens, UniProt P08172).
T1 sequence (P08172 whole entry): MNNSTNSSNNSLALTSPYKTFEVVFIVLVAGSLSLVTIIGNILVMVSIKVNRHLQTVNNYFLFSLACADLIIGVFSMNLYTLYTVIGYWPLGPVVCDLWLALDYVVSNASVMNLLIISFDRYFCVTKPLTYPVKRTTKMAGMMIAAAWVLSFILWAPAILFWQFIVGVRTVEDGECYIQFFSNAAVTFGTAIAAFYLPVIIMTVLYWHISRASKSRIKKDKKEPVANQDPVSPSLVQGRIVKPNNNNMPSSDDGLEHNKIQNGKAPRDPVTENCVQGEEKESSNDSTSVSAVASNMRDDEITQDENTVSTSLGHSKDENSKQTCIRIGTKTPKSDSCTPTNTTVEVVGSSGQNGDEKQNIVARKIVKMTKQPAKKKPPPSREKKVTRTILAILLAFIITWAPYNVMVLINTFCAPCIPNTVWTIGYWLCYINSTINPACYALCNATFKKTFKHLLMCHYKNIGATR
The experiment in a line: Inhibitory activity against human Muscarinic acetylcholine receptor M2 using [3H]quinuclidinyl benzilate to label antagonist site (RQNB) in CHO cells. Type of assay: cell-based.

In assay [3] the target is T2, Muscarinic acetylcholine receptor M1 (Homo sapiens, UniProt P11229).
T2 sequence (P11229 whole entry): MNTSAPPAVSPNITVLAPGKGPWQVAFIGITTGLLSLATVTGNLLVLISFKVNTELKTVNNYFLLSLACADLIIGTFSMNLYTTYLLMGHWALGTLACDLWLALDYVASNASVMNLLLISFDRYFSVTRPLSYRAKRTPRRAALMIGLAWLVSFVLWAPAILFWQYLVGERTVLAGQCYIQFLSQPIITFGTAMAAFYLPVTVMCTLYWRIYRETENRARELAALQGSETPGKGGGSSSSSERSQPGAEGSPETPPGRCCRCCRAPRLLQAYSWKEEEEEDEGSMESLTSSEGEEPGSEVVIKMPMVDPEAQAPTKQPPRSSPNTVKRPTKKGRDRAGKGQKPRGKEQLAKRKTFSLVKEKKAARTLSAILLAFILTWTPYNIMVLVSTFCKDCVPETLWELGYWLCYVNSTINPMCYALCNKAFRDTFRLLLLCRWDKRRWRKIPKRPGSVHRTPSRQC
The class given is functional, cell-based, CHO.
Description: Inhibitory activity against human Muscarinic acetylcholine receptor M1 using [3H]quinuclidinyl benzilate to label antagonist site (RQNB) in CHO cells

The target of assay [4] is T3, Muscarinic receptor M1 and M2 (Rattus norvegicus, UniProt P08482+P10980).
T3 sequence (P08482 whole entry): T2 sequence (P11229 whole entry) with A5V, T254S, P309S, R320K, A337G, I413V
T3 sequence (P10980 whole entry): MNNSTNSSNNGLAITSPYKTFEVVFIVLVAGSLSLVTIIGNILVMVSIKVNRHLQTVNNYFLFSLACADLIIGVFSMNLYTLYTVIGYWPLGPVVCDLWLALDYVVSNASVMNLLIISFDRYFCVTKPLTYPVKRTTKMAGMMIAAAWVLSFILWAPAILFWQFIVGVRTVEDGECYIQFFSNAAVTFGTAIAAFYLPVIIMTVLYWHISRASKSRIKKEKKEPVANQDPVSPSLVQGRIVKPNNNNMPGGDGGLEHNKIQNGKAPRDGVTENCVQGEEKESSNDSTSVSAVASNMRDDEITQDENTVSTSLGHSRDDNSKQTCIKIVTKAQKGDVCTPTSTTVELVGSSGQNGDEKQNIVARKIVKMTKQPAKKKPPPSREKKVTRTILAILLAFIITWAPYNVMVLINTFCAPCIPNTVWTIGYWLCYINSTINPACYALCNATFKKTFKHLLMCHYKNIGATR
The assay can be described thus: Compound was evaluated for its inhibition of [3H]quinuclidinyl benzilate binding to label antagonist site (RQNB) in rat neocortex.

The target of assay [5] is T4, Muscarinic acetylcholine receptor M3 (Homo sapiens, UniProt P20309). The experiment in a line: Evaluated for its MIPA (muscarinic-stimulated inositol phosphate accumulation) activity measured in SK-N-SH neuroblastoma cells expressing human muscarinic m3 receptor, compound run at 100 uM;100 uM of carbachol was used. Type of assay: functional, cell-based.
Target sequence in this assay (P20309 whole entry, looked up): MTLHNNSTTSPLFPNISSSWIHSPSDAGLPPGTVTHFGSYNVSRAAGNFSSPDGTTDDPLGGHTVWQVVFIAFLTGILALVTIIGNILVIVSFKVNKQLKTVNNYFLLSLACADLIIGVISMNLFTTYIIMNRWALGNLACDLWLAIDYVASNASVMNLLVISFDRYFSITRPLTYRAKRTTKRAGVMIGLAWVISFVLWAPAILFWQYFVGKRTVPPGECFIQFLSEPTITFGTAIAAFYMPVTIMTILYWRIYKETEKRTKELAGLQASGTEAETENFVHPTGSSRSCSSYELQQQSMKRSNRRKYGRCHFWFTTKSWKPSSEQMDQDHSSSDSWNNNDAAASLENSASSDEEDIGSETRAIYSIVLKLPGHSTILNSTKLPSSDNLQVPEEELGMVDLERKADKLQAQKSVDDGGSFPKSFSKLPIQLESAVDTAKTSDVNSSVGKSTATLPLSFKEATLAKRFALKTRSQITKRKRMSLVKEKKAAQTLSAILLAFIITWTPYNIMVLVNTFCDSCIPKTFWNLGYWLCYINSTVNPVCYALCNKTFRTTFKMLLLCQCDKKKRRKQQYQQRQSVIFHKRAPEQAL
Assay [6] addresses T4, Muscarinic acetylcholine receptor M3. Type of assay: functional, cell-based, SK-N-SH.
Target sequence in this assay (P20309 whole entry): as the sequence (P20309 whole entry, looked up) above
Description: Effective concentration for MIPA (muscarinic-stimulated inositol phosphate accumulation) activity in SK-N-SH neuroblastoma cells expressing human muscarinic M3 receptor
The target in assay [7] is T5, Muscarinic acetylcholine receptor M1 (Homo sapiens) (UniProt P11229).
T5 sequence (whole entry): T2 sequence (P11229 whole entry)
Particulars: CHO; at 100 µM.
Description: Evaluated for its HMPA (human muscarinic inositol phosphate accumulation) activity measured in CHO cells expressing Muscarinic acetylcholine receptor M1 compound run at 100 uM

Assay [8] addresses T2, Muscarinic acetylcholine receptor M1. Type of assay: functional, cell-based, CHO. This is another data set of the same source.
Description: Effective concentration for HMPA (human muscarinic inositol phosphate accumulation) activity measured in CHO cells expressing Muscarinic acetylcholine receptor M1

Where a chain is given by its changes, count along the chain named.

For `CCCCC#CCO/N=C1\CN2CCC1C2` (centres undefined), the IC50 in assay [1] amounted to 0.044 µM; in assay [2], 9.65 µM; in assay [3] it was 7.89 µM; in assay [4], 6.045 µM.

In the case of `C1CC(O/N=C2\CN3CCC2C3)C1` (centres undefined), the IC50 in assay [1] turned out to be 0.088 µM; in assay [2], 1.63 µM; in assay [3] it was 1.11 µM; in assay [4], 1.156 µM.

On to `CCO/N=C1\CN2CCC1C2` (centres undefined), for which the CCh in assay [5] came to 19%. Moreover, the half-inhibitory concentration (IC50) was 0.0125 µM in assay [1] and 3.112 µM in assay [4]. The EC50 in assay [6] stood at 8.9 µM.

`CC(C)(C)O/N=C1\CN2CCC1C2` (centres undefined): the concentration for half-maximal inhibition (IC50) in assay [1] was found to be 0.091 µM; in assay [2], 4.46 µM; in assay [3] it was 3.84 µM; in assay [4], 3.54 µM.

On to `C#CCCO/N=C1\CN2CCC1C2` (centres undefined), for which the IC50 in assay [1] was 0.083 µM; in assay [2] it was 15.6 µM; in assay [3] it was 14.5 µM; in assay [4], 9.806 µM.

Consider `C#CCC#CCO/N=C1\CN2CCC1C2` (centres undefined), for which the CCh in assay [5] came out at 14%; in assay [7] it was 79%. The IC50 in assay [2] was determined as 2.84 µM; in assay [3] it was 10 µM; in assay [4], 8.834 µM. Besides, the EC50 in assay [6] came to 16.4 µM; in assay [8], 4.7 µM.

Take `C#CCO/N=C1\CN2CCC1C2` (centres undefined): the values for the CCh in assay [5] and in assay [7] were 51% and 104%, respectively. Also, the IC50 in assay [2] was 1.04 µM; in assay [3] it was 9.51 µM; in assay [4], 4.359 µM. In addition, the EC50 in assay [6] was determined as 8.4 µM; in assay [8] it was 0.89 µM.

Turning to `C#CC(C)O/N=C1\CN2CCC1C2` (centres undefined), the IC50 in assay [1] worked out at 0.035 µM; in assay [2], 5.28 µM; in assay [3], 3.69 µM; in assay [4] it was 3.984 µM.

Turning to `C(#Cc1ccccc1)CO/N=C1\CN2CCC1C2` (centres undefined), the results for the CCh in assay [5] and in assay [7] were 11% and 76%, respectively. Also, the IC50 in assay [2] was determined as 25.8 µM; in assay [3] it was 5.42 µM; in assay [4], 5.012 µM. In assay [8], this compound yielded a concentration giving a half-maximal response (EC50) of 3.3 µM.

In the case of `C#C/C=C/CO/N=C1\CN2CCC1C2` (centres undefined), the IC50 in assay [2] is 30.2 µM; in assay [3], 12.6 µM; in assay [4], 13.85 µM.

Regarding `C=CCC#CCO/N=C1\CN2CCC1C2` (centres undefined), the IC50 in assay [1] worked out at 0.032 µM; in assay [2], 15.9 µM; in assay [3], 9.44 µM; in assay [4] it was 7.313 µM.

Take `CO/N=C1\CN2CCC1C2` (centres undefined): the CCh in assay [5] was found to be 53%. The IC50 in assay [2] came out at 7.89 µM; in assay [3] it was 85 µM; in assay [4], 24.558 µM. The same compound yielded a 50% effective concentration (EC50) in assay [6] of 14.6 µM.

Take `CC(C)O/N=C1\CN2CCC1C2` (centres undefined): the IC50 in assay [1] was found to be 0.046 µM; in assay [2] it was 3.15 µM; in assay [3] it was 2.61 µM; in assay [4], 2.03 µM.

`CC#CCC#CCO/N=C1\CN2CCC1C2` (centres undefined): the CCh was 2% in assay [5] and 81% in assay [7]. For the same compound, the IC50 came to 0.039 µM in assay [1], 5.08 µM in assay [2], 5.68 µM in assay [3] and 2.914 µM in assay [4]. The EC50 in assay [8] came out at 5.05 µM.

For `C#CCC#CCC#CCO/N=C1\CN2CCC1C2` (centres undefined), the results for the CCh in assay [5] and in assay [7] were 0% and 50%, respectively. For the same compound, the values for the 50% inhibitory concentration (IC50) in assay [2], in assay [3] and in assay [4] were 2.18 µM, 2.03 µM and 0.958 µM, respectively. In assay [8], this compound came in with an EC50 of 5.1 µM.

With `CCCO/N=C1\CN2CCC1C2` (centres undefined), the CCh came to 3% in assay [5] and 44% in assay [7]. Also, the IC50 in assay [1] was determined as 0.12 µM; in assay [2] it was 3.98 µM; in assay [3] it was 3.68 µM; in assay [4] it was 0.032 µM. The same compound registered a concentration for a half-maximal effect (EC50) in assay [8] of 27 µM.

Take `COCC#CCO/N=C1\CN2CCC1C2` (centres undefined): the IC50 in assay [1] is 0.055 µM; in assay [2], 59.3 µM; in assay [3] it was 42.4 µM; in assay [4], 35.434 µM.
